Here are results for 20 molecules from patent publication US20140221346A1, “THERAPEUTIC COMPOUNDS” (Gilead Sciences, Inc., priority 2013, published 2014).

A short description of data set [1]: Test B: Cytotoxicity Assay. The format is cell-based. The note with it: human, uninfected MT-4 cells, same protocol as Test A, CellTiter-Glo. Here is the method:
(§1) For the antiviral assay, 40 μL of 1× test concentration of 3-fold serially diluted compound in culture medium with 10% FBS was added to each well of a 384-well plate (10 concentrations) in quadruplicate. MT-4 cells were next mixed with HIV-IIIb at an m.o.i of 0.003 for 1 hour, after which time 35 μL of virus/cell mixture (2000 cells) was immediately added to each well containing 40 μL of diluted compound. The plates were then incubated at 37° C. for 5 days. After 5 days of incubation, 25 μl of 2× concentrated CellTiter-Glo™ Reagent (catalog #G7571, Promega Biosciences, Inc., Madison, Wis.) was added to each well containing MT-4 cells. Cell lysis was carried out by incubating at room temperature for 10 min and then chemiluminescence was read.
Compound cytotoxicity and the corresponding CC50 values was determined using the same protocol as described in the antiviral assay (Test A) except that uninfected cells were used.
In general terms: ATP-based viability assays read luminescence as a measure of living cells.

The subject of another data set is HIV-IIIb. Nature of the data set: Test A: Antiviral Assay in MT4 Cells. The format is cell-based, HIV-1. The note with it: Human immunodeficiency virus 1, IIIB, MT4, 120 h, read-out: % inhibition at 3 μM. Here is the method: as §1

One may read the CC50 as the concentration giving 50% cytotoxicity. A low value points to greater toxicity to the cells. As usually defined, the inhibition is how much of the control response was suppressed. On to `NC(=O)c1cc(-c2ccc(N)nc2[C@H](Cc2cc(F)cc(F)c2)NC(=O)Cc2c[nH]c3ccc(F)cc23)ccc1F` [Compound 1H, (S)-5-(6-amino-2-(2-(3,5-difluorophenyl)-1-(2-(5-fluoro-1H-indol-3-yl)acetamido)ethyl)pyridin-3-yl)-2-fluorobenzamide], for which half-maximal cytotoxicity in data set [1] (CC50 at 5 days) was put at 22.1 µM. In addition, the inhibition at 3 µM with HIV-IIIb came to 98%.
The molecule `NC(=O)c1cc(-c2cnc(NCCn3ccnn3)nc2[C@H](Cc2cc(F)cc(F)c2)NC(=O)Cn2nc(C(F)F)c3c2C(F)(F)CCC3(F)F)ccc1F` [Compound 23F, (S)-5-(2-((2-(1H-1,2,3-triazol-1-yl)ethyl)amino)-4-(1-(2-(3-(difluoromethyl)-4,4,7,7-tetrafluoro-4,5,6,7-tetrahydro-1H-indazol-1-yl)acetamido)-2-(3,5-difluorophenyl)ethyl)pyrimidin-5-yl)-2-fluorobenzamide] yielded a CC50 at 5 days in data set [1] of 32.7 µM. Also, the inhibition at 3 µM in the data set with HIV-IIIb amounted to 77%.
With `COCCNc1ncc(-c2ccc(F)c(C(N)=O)c2)c([C@H](Cc2cc(F)cc(F)c2)NC(=O)Cn2nc(C(F)F)c3c2C(F)(F)CCC3(F)F)n1` [Compound 12E, (S)-5-(4-(1-(2-(3-(difluoromethyl)-4,4,7,7-tetrafluoro-4,5,6,7-tetrahydro-1H-indazol-1-yl)acetamido)-2-(3,5-difluorophenyl)ethyl)-2-((2-methoxyethyl)amino)pyrimidin-5-yl)-2-fluorobenzamide], in data set [1], half-maximal cytotoxicity (CC50 at 5 days) was put at 18.2 µM. Besides, the inhibition at 3 µM in the data set with HIV-IIIb worked out at 86%.
The molecule `CNc1ncc(-c2ccc(F)c(C(N)=O)c2)c([C@H](Cc2cc(F)cc(F)c2)NC(=O)Cn2nc(C(F)F)c3c2C(F)(F)CCC3(F)F)n1` [Compound 14B, (S)-5-(4-(1-(2-(3-(difluoromethyl)-4,4,7,7-tetrafluoro-4,5,6,7-tetrahydro-1H-indazol-1-yl)acetamido)-2-(3,5-difluorophenyl)ethyl)-2-(methylamino)pyrimidin-5-yl)-2-fluorobenzamide] showed a CC50 at 5 days in data set [1] of 28.6 µM. Besides, the inhibition at 3 µM with HIV-IIIb worked out at 89%.
`NC(=O)c1cc(-c2cnc(NCCN3CCCC3)nc2[C@H](Cc2cc(F)cc(F)c2)NC(=O)Cn2nc(C(F)F)c3c2C(F)(F)CCC3(F)F)ccc1F` [Compound 27]: the midpoint of cytotoxicity in data set [1], the CC50 at 5 days, lay at 3.5 µM.
Take `Nc1ccc(-c2ccc(Cl)cc2)c(C(Cc2cc(F)cc(F)c2)NC(=O)Cc2c[nH]c3ccc(F)cc23)n1` (centres unmarked) [Compound 3, N-(1-(6-amino-3-(4-chlorophenyl)pyridin-2-yl)-2-(3,5-difluorophenyl)ethyl)-2-(5-fluoro-1H-indol-3-yl)acetamide]: the CC50 at 5 days in data set [1] was determined as 9.34 µM. Further, in the data set on HIV-IIIb, the inhibition at 3 µM was determined as 87%.
For `NC(=O)c1cc(-c2cnc(NCCN3CCNC3=O)nc2[C@H](Cc2cc(F)cc(F)c2)NC(=O)Cn2nc(C(F)F)c3c2C(F)(F)CCC3(F)F)ccc1F` [Compound 22B, (S)-5-(4-(1-(2-(3-(difluoromethyl)-4,4,7,7-tetrafluoro-4,5,6,7-tetrahydro-1H-indazol-1-yl)acetamido)-2-(3,5-difluorophenyl)ethyl)-2-((2-(2-oxoimidazolidin-1-yl)ethyl)amino)pyrimidin-5-yl)-2-fluorobenzamide], in data set [1], it took 34.1 µM to reach half-maximal cytotoxicity (CC50 at 5 days). In addition, the inhibition at 3 µM with HIV-IIIb amounted to 93%.
In turn, `NC(=O)c1cc(-c2cnc(NCCN3CCOCC3)nc2[C@H](Cc2cc(F)cc(F)c2)NC(=O)Cn2nc(C(F)F)c3c2C(F)(F)CCC3(F)F)ccc1F` [Compound 28, (S)-5-(4-(1-(2-(3-(difluoromethyl)-4,4,7,7-tetrafluoro-4,5,6,7-tetrahydro-1H-indazol-1-yl)acetamido)-2-(3,5-difluorophenyl)ethyl)-2-((2-morpholinoethyl)amino)pyrimidin-5-yl)-2-fluorobenzamide] displayed a 50% cytotoxic concentration (CC50) at 5 days in data set [1] of 14.1 µM. In addition, in the data set with HIV-IIIb, the inhibition at 3 µM came to 81%.
Regarding `CN(C)c1ncc(-c2ccc(F)c(C(N)=O)c2)c([C@H](Cc2cc(F)cc(F)c2)NC(=O)Cn2nc(C(F)F)c3c2C(F)(F)CCC3(F)F)n1` [Compound 18B, (S)-5-(4-(1-(2-(3-(difluoromethyl)-4,4,7,7-tetrafluoro-4,5,6,7-tetrahydro-1H-indazol-1-yl)acetamido)-2-(3,5-difluorophenyl)ethyl)-2-(dimethylamino)pyrimidin-5-yl)-2-fluorobenzamide], the CC50 at 5 days in data set [1] came out at 38.9 µM. Besides, the inhibition at 3 µM in the data set with HIV-IIIb came to 16%.
Regarding `NC(=O)c1cc(-c2ccc(N)nc2[C@@H](Cc2cc(F)cc(F)c2)NC(=O)Cc2c[nH]c3ccc(F)cc23)ccc1F` [Compound 2, (R)-5-(6-amino-2-(2-(3,5-difluorophenyl)-1-(2-(5-fluoro-1H-indol-3-yl)acetamido)ethyl)pyridin-3-yl)-2-fluorobenzamide], in data set [1], the CC50 at 5 days is 25.2 µM. In the data set with HIV-IIIb, the inhibition at 3 µM is 0%.
`NC(=O)c1cccc(-c2ccc(N)nc2C(Cc2cc(F)cc(F)c2)NC(=O)Cc2c[nH]c3ccc(F)cc23)c1` (centres unmarked) [Compound 4, 3-(6-amino-2-(2-(3,5-difluorophenyl)-1-(2-(5-fluoro-1H-indol-3-yl)acetamido)ethyl)pyridin-3-yl)benzamide]: the CC50 at 5 days in data set [1] stood at 13.1 µM. In addition, the inhibition at 3 µM in the data set with HIV-IIIb is 94%.
For `NC(=O)c1cc(-c2cnc(N3CCC(O)CC3)nc2[C@H](Cc2cc(F)cc(F)c2)NC(=O)Cn2nc(C(F)F)c3c2C(F)(F)CCC3(F)F)ccc1F` [Compound 21, (S)-5-(4-(1-(2-(3-(difluoromethyl)-4,4,7,7-tetrafluoro-4,5,6,7-tetrahydro-1H-indazol-1-yl)acetamido)-2-(3,5-difluorophenyl)ethyl)-2-(4-hydroxypiperidin-1-yl)pyrimidin-5-yl)-2-fluorobenzamide] the same measures were 22.5 µM and 41%.
The molecule `NC(=O)c1cc(-c2cnc(NCCN3CCCC3=O)nc2[C@H](Cc2cc(F)cc(F)c2)NC(=O)Cn2nc(C(F)F)c3c2C(F)(F)CCC3(F)F)ccc1F` [Compound 24, (S)-5-(4-(1-(2-(3-(difluoromethyl)-4,4,7,7-tetrafluoro-4,5,6,7-tetrahydro-1H-indazol-1-yl)acetamido)-2-(3,5-difluorophenyl)ethyl)-2-((2-(2-oxopyrrolidin-1-yl)ethyl)amino)pyrimidin-5-yl)-2-fluorobenzamide] had a half-maximal cytotoxic concentration (CC50) at 5 days in data set [1] of 37.2 µM. Besides, the inhibition at 3 µM in the data set with HIV-IIIb turned out to be 79%.
For `Nc1ccc(-c2cccc(F)c2)c(C(Cc2cc(F)cc(F)c2)NC(=O)Cc2c[nH]c3ccc(F)cc23)n1` (centres unmarked) [Compound 9, N-(1-(6-amino-3-(3-fluorophenyl)pyridin-2-yl)-2-(3,5-difluorophenyl)ethyl)-2-(5-fluoro-1H-indol-3-yl)acetamide] the same measures were 17.5 µM and 41%.
For the molecule `Nc1ccc(-c2cccc(S(N)(=O)=O)c2)c(C(Cc2cc(F)cc(F)c2)NC(=O)Cc2c[nH]c3ccc(F)cc23)n1` (centres unmarked) [Compound 5, N-(1-(6-amino-3-(3-sulfamoylphenyl)pyridin-2-yl)-2-(3,5-difluorophenyl)ethyl)-2-(5-fluoro-1H-indol-3-yl)acetamide], in data set [1], the CC50 at 5 days was determined as 28.7 µM. In the data set with HIV-IIIb, the inhibition at 3 µM was found to be 87%.
In turn, `NC(=O)c1cc(-c2cnc(N3CC4(COC4)C3)nc2[C@H](Cc2cc(F)cc(F)c2)NC(=O)Cn2nc(C(F)F)c3c2C(F)(F)CCC3(F)F)ccc1F` [Compound 15B, (S)-5-(4-(1-(2-(3-(difluoromethyl)-4,4,7,7-tetrafluoro-4,5,6,7-tetrahydro-1H-indazol-1-yl)acetamido)-2-(3,5-difluorophenyl)ethyl)-2-(2-Oxa-6-azaspiro[3.3]heptan-6-yl)pyrimidin-5-yl)-2-fluorobenzamide] registered a CC50 at 5 days in data set [1] of 36.3 µM. In the data set on HIV-IIIb, the inhibition at 3 µM amounted to 70%.
For `NC(=O)c1cc(-c2cnc(NCC3CC3)nc2[C@H](Cc2cc(F)cc(F)c2)NC(=O)Cn2nc(C(F)F)c3c2C(F)(F)CCC3(F)F)ccc1F` [Compound 13B, (S)-5-(2-((cyclopropylmethyl)amino)-4-(1-(2-(3-(difluoromethyl)-4,4,7,7-tetrafluoro-4,5,6,7-tetrahydro-1H-indazol-1-yl)acetamido)-2-(3,5-difluorophenyl)ethyl)pyrimidin-5-yl)-2-fluorobenzamide], the CC50 at 5 days in data set [1] amounted to 7.72 µM. For the same molecule, the inhibition at 3 µM in the data set with HIV-IIIb was found to be 42%.
Taken in the same sequence, the figures for `COCCOCCNc1ncc(-c2ccc(F)c(C(N)=O)c2)c([C@H](Cc2cc(F)cc(F)c2)NC(=O)Cn2nc(C(F)F)c3c2C(F)(F)CCC3(F)F)n1` [Compound 17B, (S)-5-(4-(1-(2-(3-(difluoromethyl)-4,4,7,7-tetrafluoro-4,5,6,7-tetrahydro-1H-indazol-1-yl)acetamido)-2-(3,5-difluorophenyl)ethyl)-2-((2-(2-methoxyethoxy)ethyl)amino)pyrimidin-5-yl)-2-fluorobenzamide] were 48.8 µM and 83%.
In data set [1], `Nc1ccc(-c2cccc(CO)c2)c(C(Cc2cc(F)cc(F)c2)NC(=O)Cc2c[nH]c3ccc(F)cc23)n1` (centres unmarked) [Compound 6, N-(1-(6-amino-3-(3-(hydroxymethyl)phenyl)pyridin-2-yl)-2-(3,5-difluorophenyl)ethyl)-2-(5-fluoro-1H-indol-3-yl)acetamide] returned a CC50 at 5 days of 14.4 µM. Besides, in the data set with HIV-IIIb, the inhibition at 3 µM worked out at 59%.
Molecule `CC(=O)Oc1ccc(-c2ccc(F)c(C(N)=O)c2)c([C@H](Cc2cc(F)cc(F)c2)NC(=O)Cn2nc(C(F)F)c3c2C(F)(F)CCC3(F)F)n1` [Compound 20B, (S)-5-(3-carbamoyl-4-fluorophenyl)-6-(1-(2-(3-(difluoromethyl)-4,4,7,7-tetrafluoro-4,5,6,7-tetrahydro-1H-indazol-1-yl)acetamido)-2-(3,5-difluorophenyl)ethyl)pyridin-2-yl acetate] showed a CC50 at 5 days in data set [1] greater than 53.2 µM.
